{"source": "patent US20260265248A1", "about": "“NOVEL PD-L1 INHIBITORS” (AFFIRMA BIOTECH S. L., priority 2023, published 2026)", "data": [{"target": "T1, PD-1/PD-L1 (Homo sapiens, UniProt Q9NZQ7)", "T1 construct": "purchased CisBio", "T1 sequence (Q9NZQ7 19-238 limits assumed)": "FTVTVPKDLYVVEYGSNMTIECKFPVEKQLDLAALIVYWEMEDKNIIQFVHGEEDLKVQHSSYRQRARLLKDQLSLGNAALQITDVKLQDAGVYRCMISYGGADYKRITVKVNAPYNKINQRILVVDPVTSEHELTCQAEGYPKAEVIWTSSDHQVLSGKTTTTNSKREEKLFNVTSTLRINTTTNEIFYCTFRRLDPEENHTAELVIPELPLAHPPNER", "assay": "PD1-PDL1 HTRF assay", "settings": "PD-1/PD-L1 homogenous time-resolved fluorescence (HTRF) binding assay; Tag1-PDL1 5 nM, Tag2-PD1 50 nM", "excerpt": "The CisBio HTRF assay kit, purchased from CisBio only, was employed to determine the IC50 values of compounds. The PD1-PDL1 HTRF assay measures the interactions between the two proteins, PD1 and PDL1. The interaction is detected by using anti-Tag1 labeled with Europium (HTRF donor) which binds to PDL1 and anti-Tag2 labeled with XL665 (HTRF acceptor) which binds to PD1. When the two antibodies are in proximity, the excitation of the donor fluorophore results in FRET emission from the acceptor fluorophore. The presence of inhibitors for such an interaction result in reduction of HTRF signal.\nThe assay was conducted in 96-well white assay plates. All the reagents, including Tag1-PDL1, Tag2-PD1, Anti-Tag1-PDL1, Anti-Tag2-PD1 were thawed and diluted with PPI Europium Detection buffer to achieve the desired concentration as per the manufacturer's protocol. A 1000 μM stock solution of test inhibitors was prepared in DMSO. The stock solution was diluted in DMSO to prepare 8 concentrations (1000-0.001 μM). These stock solutions were further diluted in PPI Europium detection buffer to prepare 8 working stock solutions (100-0.0001 μM). To the 96-well plate, 2 μL of the test inhibitor working stock solutions were added followed by 4 μL of Tag1-PDL1 (5 nM) and 4 μL of Tag2-PD1 (50 nM). The plate was incubated at room temperature for 15 min. Subsequently, 10 μL of pre-mixed Anti-Tag1-PDL1 and Anti-Tag2-PD1 solution was added. The plate was sealed and incubated at room temperature for 1 h. The HTRF signal was read on Perkin Elmer Envision plate reader using excitation wavelength of 320 nm, emission wavelengths of 620 nm and 665 nm. Results were obtained by calculating the ratio of signal from acceptor at 665 nm to that of signal from donor at 620 nm multiplied by […]. The IC50 values were determined by the Hill equation using GraphPad Prism software.", "units": {"IC50": "nM"}, "values": [{"smiles": "Cc1c(-c2ccc3c(c2)OCCO3)cccc1-c1ccn2c(-c3ccc(C(=O)N4CCC[C@@H]4C(=O)O)cc3)cnc2c1", "note": "[Example 42, (4-(7-(3-(2,3-dihydrobenzo[b][1,4]dioxin-6-yl)-2-methylphenyl)imidazo[1,2-a]pyridin-3-yl)benzoyl)-D-proline]", "IC50": "100 to 1000"}, {"smiles": "OCCNCc1ccc(-c2cccc(-c3cccc(-c4ccn5nc(CNCCO)nc5c4)c3Cl)c2Cl)cc1", "note": "[Example 104, 2-(((2′,2″-dichloro-3″-(2-(((2-hydroxyethyl)amino)methyl)-[1,2,4]triazolo[1,5-a]pyridin-7-yl)-[1,1′:3′,1″-terphenyl]-4-yl)methyl)amino)ethan-1-ol]", "IC50": "≤ 10"}, {"smiles": "Cc1c(-c2ccccc2)cccc1-c1ccn2c(C#CCN3CCC[C@H]3C(=O)O)cnc2c1", "note": "[Example 51, (3-(7-(2-methyl-[1,1′-biphenyl]-3-yl)imidazo[1,2-a]pyridin-3-yl)prop-2-yn-1-yl)-L-proline]", "IC50": "100 to 1000"}, {"smiles": "Cc1c(-c2ccccc2)cccc1-c1ccn2c(-c3ccc(CNC4(C(=O)O)CCC4)cc3)cnc2c1", "note": "[Example 5, 1-((4-(7-(2-methyl-[1,1′-biphenyl]-3-yl)imidazo[1,2-a]pyridin-3-yl)benzyl)amino)cyclobutane-1-carboxylic acid]", "IC50": "100 to 1000"}, {"smiles": "Cc1c(-c2ccc3c(c2)OCCO3)cccc1-c1ccn2c(-n3ccc(C(=O)NCC(=O)O)n3)cnc2c1", "note": "[Example 48, (1-(7-(3-(2,3-dihydrobenzo[b][1,4]dioxin-6-yl)-2-methylphenyl)imidazo[1,2-a]pyridin-3-yl)-1H-pyrazole-3-carbonyl)glycine]", "IC50": "10 to 100"}, {"smiles": "Cc1c(-c2ccc3c(c2)OCCO3)cccc1-c1ccn2c(-c3ccc(CN4CCOCC4C(=O)O)cc3)cnc2c1", "note": "(racemic) [Example 33, 4-(4-(7-(3-(2,3-dihydrobenzo[b][1,4]dioxin-6-yl)-2-methylphenyl)imidazo[1,2-a]pyridin-3-yl)benzyl)morpholine-3-carboxylic acid]", "IC50": "100 to 1000"}, {"smiles": "Cc1c(-c2ccccc2)cccc1-c1ccn2c(-c3ccc(CN4CCC[C@H]4CO)cc3)cnc2c1", "note": "[Example 24, (S)-(1-(4-(7-(2-methyl-[1,1′-biphenyl]-3-yl)imidazo[1,2-a]pyridin-3-yl)benzyl)pyrrolidin-2-yl)methanol]", "IC50": "100 to 1000"}, {"smiles": "COc1cc(-c2cnc3cc(-c4cccc(-c5ccccc5)c4C)ccn23)cc(OC)c1CN1CCCC1C(=O)O", "note": "(stereo not drawn) [Example 20, 1-(2,6-dimethoxy-4-(7-(2-methyl-[1,1′-biphenyl]-3-yl)imidazo[1,2-ai]pyridin-3-yl)benzyl)piperidine-2-carboxylic acid]", "IC50": "100 to 1000"}, {"smiles": "Cc1c(-c2ccc3c(c2)OCCO3)cccc1-c1ccn2c(-c3ccc(CNC[C@H](O)CO)cc3)cnc2c1", "note": "[Example 32, (S)-3-((4-(7-(3-(2,3-dihydrobenzo[b][1,4]dioxin-6-yl)-2-methylphenyl)imidazo[1,2-a]pyridin-3-yl)benzyl)amino)propane-1,2-diol]", "IC50": "100 to 1000"}, {"smiles": "Cc1c(NC(=O)c2ccc(CNCCO)cn2)cccc1-c1cccc(-c2ccn3c(-c4ccc(CN5CCC[C@H]5C(=O)O)cc4)nnc3c2)c1C", "note": "[Example 69, (4-(7-(31-(5-(((2-hydroxyethyl)amino)methyl)picolinamido)-2,2′-dimethyl-[1,1′-biphenyl]-3-yl)-[1,2,4]triazolo [4,3-α]pyridin-3-yl)benzyl)-L-proline]", "IC50": "≤ 10"}, {"smiles": "Cc1c(-c2ccc3c(c2)OCCO3)cccc1-c1ccn2c(-c3ccc(CNC[C@@H](O)CO)cc3)cnc2c1", "note": "[Example 31, (R)-3-((4-(7-(3-(2,3-dihydrobenzo[b][1,4]dioxin-6-yl)-2-methylphenyl)imidazo[1,2-a]pyridin-3-yl)benzyl)amino)propane-1,2-diol]", "IC50": "100 to 1000"}, {"smiles": "Cc1c(-c2ccc3c(c2)OCCO3)cccc1-c1ccn2c(-c3ccc(C(=O)N4CCC[C@H]4C(=O)O)cc3)cnc2c1", "note": "[Example 43, (4-(7-(3-(2,3-dihydrobenzo[b][1,4]dioxin-6-yl)-2-methylphenyl)imidazo[1,2-a]pyridin-3-yl)benzoyl)-L-proline]", "IC50": "100 to 1000"}]}]}
